# In US3963777A, “1-Polyhydroxy alkyl-1,4-benzodiazepin-2-ones” (Hoffmann-La Roche Inc., priority 1975, dated 1976):
# Tests used:
# [1] = standard pentamethylenetetrazole (pentetrazole) test for anticonvulsant activity, method of Orloff; type: in vivo; conditions: p.o.
# From the text: The compounds of formula I above and their pharmaceutically acceptable acid addition salts are useful as sedative muscle relaxant and anti-convulsant agents.
# [2] = tested on: mice; assay: standard rotating rod test (sedative and muscle-relaxant activity); type: in vivo; conditions: p.o.
# Method: In this test, the ability of mice to achieve a coordinated motor performance is investigated. After peroral administration of the test substance, the mice are placed upon a horizontal slowly rotating rod and the time they remain on the rod is recorded. The ED50 is that dose which reduces the holding on period of the mice by 50% as compared to the holding on period prior to the administration of the test substance.
# [3] = LD50 (p.o.), acute toxicity; conditions: in vivo, po
smiles,measurement,setting,value
"O=C1CN=C(c2ccccc2F)c2cc(Cl)ccc2N1CC(O)CO (stereo not drawn) [Compound A, 7-chloro-1-(2,3-dihydroxypropyl)-5-(2-fluorophenyl)-1,3-dihydro-2H-1,4-benzodiazepin-2-one]",APR 2.0 (dosage of an anticonvulsant which causes a two-fold pentetrazole consumption in contrast to an untreated control group),[1],5.6 mg/kg
same,ED50 (dose which reduces the holding on period of the mice by 50% as compared to the holding on period prior to administration),[2],5.1 mg/kg
same,LD50,[3],1250 to 2500 mg/kg
